In brackets after ≈: the same amount, converted by molar mass.
Experiments:
[1] = test system: bip gene; assay: qRT-PCR, bip gene expression; assay type: cell-based, Streptococcus mutans; conditions: CSP1 20 μM vs vehicle, 2–24 h, maximum at 8 h, qPCR
Protocol: (§1) S. mutans was cultured in BHI supplemented with peptides or the vehicle. Cultures were centrifuged, and total RNA was isolated and purified from the bacterial pellets using the GRS Total RNA Kit—Bacteria (GK16.0100; GRISP Research Solution, Porto, Portugal), following the manufacturer’s instructions. Purified RNA was subjected to DNase I treatment to remove contaminating DNA. The RNA yield and purity were assessed by measuring the absorbance, and only samples with a ratio of 260/280 nm in the 1.8–2 range were used. cDNA was generated using the cDNA RT kit with an RNAse inhibitor (Applied Biosystems; Monza, Milan). Quantitative PCR (qRT-PCR) was performed using SYBR green mixture (iScript One Step RT-PCR kit; Bio-Rad, Segrate, Milan) to determine the transcript levels of genes using the oligonucleotides listed in Table 3. The gyrA gene served as the housekeeping gene.

[2] = test system: S. mutans bacteriocin production against S. mitis; assay: Bacteriocin overlay assay, S. mutans spotted on S. mitis; assay type: cell-based, Streptococcus mutans; conditions: CSP1 20 μM alone vs vehicle, 16 h, 37 °C, microaerophilic
Protocol: During the formation of complex biofilm such as dental plaque, the ability of S. mutans to compete with other commensal species determines the success of the cariogenesis process. S. mutans uses antibacterial peptides, namely, bacteriocins, to overcome and subvert the composition of dental microbiota. We investigated the production of bacteriocins using the overlay assay. Overnight cultures of S. mitis, S. oralis, S. sanguinis, P. aeruginosa, F. nucleatum, or P. gingivalis were diluted 1:100 in BHI or TS broth and incubated at 37 °C until they reached an OD620 of 0.3. Cultures were added with agar (BD Difco^TM Agar) at the final concentration of 1.5% w/v and transferred in plates. Overnight cultures of S. mutans were diluted 1:100 in BHI and added with peptides (20 μM) or the vehicle with or without CSP1. Culture media were supplemented with agar to reach the final concentration of 0.7% w/v. The solutions were spotted on the surface of agar plates prepared as described above. The plates were kept on the benchtop for 30 min, allowing the agar containing S. mutans to solidify, and then incubated at 37 °C for 16 h under microaerophilic or anaerobic conditions, as required.
Spots (10 for each experimental group) were acquired and analyzed using NIH Image J software (version 1.53t August 2022, https://imagej.nih.gov/ij/index.html; accessed on 7 September 2022). The appearance of a clear area on the plate (bacterial growth inhibition) was evaluated as indicative of bacteriocin activity. The diameters of the area were measured in a blinded fashion.

[3] = test system: comD gene; assay: qRT-PCR, comD gene expression; assay type: cell-based, Streptococcus mutans; conditions: CSP1 20 μM, planktonic, 8 h, qPCR
Protocol: as §1

[4] = test system: S. mutans biofilm formation; assay: Biofilm formation (crystal violet); assay type: cell-based, Streptococcus mutans; conditions: peptide 20 μM, 72 h, p < 0.05
Protocol: Overnight cultures of S. mutans were diluted 1:1000 in a 1:10 solution of BHI broth supplemented with 0.2% w/v sucrose and artificial saliva (AS; 1.3 g/L KCl, 0.1 g/L NaCl, 0.05 g/L MgCl, 0.1 g/L CaCl2, 0.5 g/L peptone, 25 μg/L NaF, 27 mg/L KH2PO4, 35 mg/L K2HPO4, pH 6.8; all reagents purchased from Merck). Cultures were seeded into 96-well polystyrene microtiter plates (200 µL/well) and incubated at 37 °C under static conditions. To identify the time of incubation that is useful in obtaining a mature biofilm, plates were incubated for 16, 24, 48, 72, or 96 h. Half of the media was renewed every 24 h. At the end of incubations, the wells were emptied and washed three times with sterile PBS to remove planktonic cells. Adhering cells were incubated with resazurin 0.01% in the dark at 37 °C for 20 min [30]. In metabolically active cells, the non-fluorescent resazurin was reduced to highly fluorescent resorufin by dehydrogenase enzymes. The relative fluorescence units (RFU) of resorufin were measured using a fluorimeter (Ex = 530–570 nm, Em = 590–620 nm; Varioskan Lux Reader; Thermo Fisher Scientific).
To assess the effect of the compounds on biofilm formation or mature biofilm, cultures of S. mutans were prepared as described above. […] The optical density was measured at 570 nm using a microplate reader (Varioskan Lux Reader; Thermo Fisher Scientific). […]

[5] = test system: S. oralis; assay: microbe, parasite or virus in culture; assay type: cell-based, Streptococcus oralis; conditions: peptides 0–50 μM, 16 h, 37 °C, microaerophilic, A620 nm, three separate experiments
Excerpt: Streptococcus mutans Clarke (strain designation NCTC 10449), Pseudomonas aeruginosa (Schroeter) Migula (strain designation PAO1), Fusobacterium nucleatum, subspecies nucleatum (strain VPI 4355), and Porphyromonas gingivalis (strain 2561) were purchased from ATCC (LGC Standards Srl, Milan, Italy). Streptococcus mitis, Streptococcus oralis, and Streptococcus sanguinis were obtained from clinical isolates and characterized by morphological, biochemical, and molecular typing. S. mutans, S. mitis, S. oralis, and S. sanguinis were maintained in Brain Heart Infusion (BHI) broth or agar under microaerophilic conditions. P. aeruginosa was maintained in trypticase soy (TS) agar or broth. F. nucleatum was maintained in TS agar or broth with defibrinated sheep blood under anaerobic conditions. P. gingivalis was maintained in ATCC Medium 2722 supplemented with TS broth or agar under anaerobic conditions. Before the experiments, bacterial cultures were inoculated in fresh media (dilution 1:100) and grown for 16 h at 37 °C.
The antimicrobial activities of the tested peptides were assessed through the determination of the minimum inhibitory concentration (MIC) standardized by the Clinical and Laboratory Standards Institute. Bacterial inocula were diluted in 10 mL of MHB […]. The concentration of the bacteria was adjusted to 0.5 McFarland standard, and the bacteria were dispensed in 96-well microtiter plates (final bacterial concentration: 1 × 10^4 CFU/well). Peptides were dissolved in sterile water (stock concentration: 2 mM) and added at final concentrations ranging from 0 to 50 µM. Plates were incubated at 37 °C for 16 h. At the end of incubation, bacterial growth was recorded using a microplate reader (Varioskan Lux Reader; Thermo Fisher Scientific, Milan, Italy) by quantifying the adsorption at 620 nm. Cultures were then opportunely diluted and seeded on agar plates. Bacterial cultures inoculated with the highest final concentration of the vehicle (sterile water) or chlorhexidine hydrochloride salt (CHX, concentration range: 0.05 to 500 μg/mL; Merck, Milan, Italy) were included as controls in each test. Experiments were performed in triplicate.

In the case of `CC[C@H](C)[C@H](NC(=O)[C@H](Cc1ccccc1)NC(=O)[C@H](CC(=O)O)NC(=O)[C@H](CCCNC(=N)N)NC(=O)[C@H](Cc1ccccc1)NC(=O)[C@H](Cc1ccccc1)NC(=O)[C@H](CCCCN)NC(=O)[C@H](CO)NC(=O)[C@H](CC(C)C)NC(=O)[C@H](CCCNC(=N)N)NC(=O)[C@H](CCSC)NC(=O)[C@@H](N)CCC(=O)O)C(=O)N[C@@H](CC(C)C)C(=O)N[C@@H](CCC(N)=O)C(=O)N[C@@H](CCCNC(=N)N)C(=O)N[C@@H](CCCCN)C(=O)N[C@@H](CCCCN)C(=O)O` [CSP1], the “Expression of bip in S. mutans” value [1] is reported as “induced the expression”, the “Growth inhibition of co-cultured S. mitis by S. mutans stimulated with peptide (diameter of clear area)” value [2] is reported as “significantly inhibited the growth” and the “Expression of comD in S. mutans” value [3] is reported as “increased the expression”. The “Effect on biofilm production vs. vehicle” value [4] was “significantly increased” and the “Minimum inhibitory concentration (MIC), S. oralis” value [5] was 25 µM (≈ 56.1 µg/mL).
